According to ChEMBL document CHEMBL1201862, “PubChem BioAssay data set” (2004):
Values belong to the molecule of their own block, whether it stands above or below them. Activity calls are given as the source filed them.

Key:
[1] = target: T1, Low molecular weight phosphotyrosine protein phosphatase (Homo sapiens, UniProt P24666); type: functional; details: read-out: IC50_Mean
T1 sequence (P24666 whole entry): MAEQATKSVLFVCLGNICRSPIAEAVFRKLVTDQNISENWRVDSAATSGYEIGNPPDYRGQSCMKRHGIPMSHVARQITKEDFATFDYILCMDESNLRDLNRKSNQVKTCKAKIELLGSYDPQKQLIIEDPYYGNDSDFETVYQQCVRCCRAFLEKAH

[2] = target: T2, Tyrosine-protein phosphatase non-receptor type 22 (Homo sapiens, UniProt Q9Y2R2); test: PTPN22 enzyme inhibitors – biochemical, fluorescence, LYP catalytic domain, selectivity assay for LMPTP inhibitor project, dose response (AID 652006); type: functional; details: read-out: IC50_Mean
T2 sequence (Q9Y2R2 whole entry): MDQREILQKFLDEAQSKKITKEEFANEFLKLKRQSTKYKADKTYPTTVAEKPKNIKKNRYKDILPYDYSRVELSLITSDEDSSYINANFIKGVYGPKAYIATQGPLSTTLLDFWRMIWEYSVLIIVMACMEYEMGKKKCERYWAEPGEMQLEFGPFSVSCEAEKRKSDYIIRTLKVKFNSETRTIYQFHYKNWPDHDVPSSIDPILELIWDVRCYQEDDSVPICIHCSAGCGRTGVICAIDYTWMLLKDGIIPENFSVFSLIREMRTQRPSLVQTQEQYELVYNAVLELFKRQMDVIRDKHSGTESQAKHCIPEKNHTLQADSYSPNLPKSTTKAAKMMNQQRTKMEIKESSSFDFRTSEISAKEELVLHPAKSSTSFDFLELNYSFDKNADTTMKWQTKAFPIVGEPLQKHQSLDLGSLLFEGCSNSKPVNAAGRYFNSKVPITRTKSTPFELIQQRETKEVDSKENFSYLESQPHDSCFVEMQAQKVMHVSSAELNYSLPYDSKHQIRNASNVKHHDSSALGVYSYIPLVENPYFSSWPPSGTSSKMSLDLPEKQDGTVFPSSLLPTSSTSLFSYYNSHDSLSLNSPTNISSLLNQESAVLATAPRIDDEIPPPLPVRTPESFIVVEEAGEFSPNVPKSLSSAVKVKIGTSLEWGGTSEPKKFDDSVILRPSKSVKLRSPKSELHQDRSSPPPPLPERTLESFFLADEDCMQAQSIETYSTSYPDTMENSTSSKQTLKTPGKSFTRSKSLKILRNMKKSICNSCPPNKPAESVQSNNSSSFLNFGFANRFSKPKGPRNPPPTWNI

[3] = target: T1, Low molecular weight phosphotyrosine protein phosphatase; type: functional; details: read-out: IC50_Mean; remark: listed apart in the source
[4] = target: T3, Interleukin-8 (Homo sapiens, UniProt P10145); test: Dose Response confirmation of uHTS small molecule hits for cystic fibrosis induced NFkb Inhibitors in a PAF-induced IL8 counterscreen.; type: functional; details: read-out: IC50_Mean
T3 sequence (P10145 whole entry): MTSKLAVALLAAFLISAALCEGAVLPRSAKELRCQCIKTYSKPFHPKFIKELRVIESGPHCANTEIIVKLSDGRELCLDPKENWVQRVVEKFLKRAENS

[5] = target: T3, Interleukin-8; test: Dose Response confirmation of uHTS small molecule hits for cystic fibrosis induced NFkb Inhibitors in a TNFa-induced IL8 counterscreen.; type: functional; details: read-out: IC50_Mean
[6] = target: T4, Corticotropin-releasing factor receptor 2/Corticotropin-releasing factor-binding protein (Homo sapiens, UniProt P24387+Q13324); test: Dose Response confirmation of uHTS hits for small molecule antagonists of the CRF-binding protein and CRF-R2 receptor complex.; type: functional; details: read-out: IC50_Mean
T4 sequence (Q13324 whole entry): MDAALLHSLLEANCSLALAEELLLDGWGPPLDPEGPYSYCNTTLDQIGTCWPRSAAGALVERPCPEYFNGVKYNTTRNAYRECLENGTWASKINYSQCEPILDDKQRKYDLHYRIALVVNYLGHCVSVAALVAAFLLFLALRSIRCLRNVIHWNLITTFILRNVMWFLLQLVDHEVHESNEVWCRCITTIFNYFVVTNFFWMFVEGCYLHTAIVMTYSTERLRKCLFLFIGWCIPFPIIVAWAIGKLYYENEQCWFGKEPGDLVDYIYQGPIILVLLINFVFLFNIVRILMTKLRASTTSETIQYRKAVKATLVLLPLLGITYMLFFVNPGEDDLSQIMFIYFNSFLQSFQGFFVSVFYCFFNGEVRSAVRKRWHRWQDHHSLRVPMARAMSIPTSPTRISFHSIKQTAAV
T4 sequence (P24387 whole entry): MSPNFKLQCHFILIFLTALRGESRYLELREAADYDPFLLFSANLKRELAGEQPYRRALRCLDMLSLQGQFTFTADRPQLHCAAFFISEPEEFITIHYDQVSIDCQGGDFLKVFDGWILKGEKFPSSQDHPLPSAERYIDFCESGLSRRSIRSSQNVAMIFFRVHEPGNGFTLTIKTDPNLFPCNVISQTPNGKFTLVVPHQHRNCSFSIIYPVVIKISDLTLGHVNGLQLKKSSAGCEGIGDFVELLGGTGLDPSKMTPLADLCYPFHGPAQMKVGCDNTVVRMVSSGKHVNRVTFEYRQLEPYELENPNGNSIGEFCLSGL

[7] = target: T4, Corticotropin-releasing factor receptor 2/Corticotropin-releasing factor-binding protein; test: activators of CRF receptor 2 with binding protein – uHTS hits, confirmation (AID 602473); type: functional; details: read-out: EC50_Mean
[8] = blockers of CRF-binding protein–CRF-R2 complex – cell-based, uHTS hits, 384-well, dose response (AID 651639); type: functional, Homo sapiens; details: read-out: IC50_Mean
[9] = target: Melanin-concentrating hormone receptor 1 (Homo sapiens, UniProt Q99705); test: Late-stage fluorescence-based counterscreen for antagonists of the G-protein coupled receptor 7 (GPR7): cell-based dose response assay to identify antagonists of the melanin-concentrating hormone receptor 1 (MCHR1) Set 5.; type: functional
Sequence of Melanin-concentrating hormone receptor 1 (Q99705 whole entry): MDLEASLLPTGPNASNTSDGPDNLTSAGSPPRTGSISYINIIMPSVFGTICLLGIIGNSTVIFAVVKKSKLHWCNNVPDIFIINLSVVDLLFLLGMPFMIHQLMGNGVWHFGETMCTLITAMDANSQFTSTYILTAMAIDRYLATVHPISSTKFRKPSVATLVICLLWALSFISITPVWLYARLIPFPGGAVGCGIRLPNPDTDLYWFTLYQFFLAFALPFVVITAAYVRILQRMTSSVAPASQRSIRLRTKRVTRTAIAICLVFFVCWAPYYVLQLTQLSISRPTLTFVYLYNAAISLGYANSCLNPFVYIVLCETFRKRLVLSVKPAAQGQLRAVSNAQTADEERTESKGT

[10] = target: T5, Neuropeptides B/W receptor type 1 (Homo sapiens, UniProt P48145); test: human NPBW1 receptor blockade, IC50 – cell-based, fluorescence, dose response, set 5, late-stage follow-up (AID 588566); type: functional
T5 sequence (P48145 whole entry): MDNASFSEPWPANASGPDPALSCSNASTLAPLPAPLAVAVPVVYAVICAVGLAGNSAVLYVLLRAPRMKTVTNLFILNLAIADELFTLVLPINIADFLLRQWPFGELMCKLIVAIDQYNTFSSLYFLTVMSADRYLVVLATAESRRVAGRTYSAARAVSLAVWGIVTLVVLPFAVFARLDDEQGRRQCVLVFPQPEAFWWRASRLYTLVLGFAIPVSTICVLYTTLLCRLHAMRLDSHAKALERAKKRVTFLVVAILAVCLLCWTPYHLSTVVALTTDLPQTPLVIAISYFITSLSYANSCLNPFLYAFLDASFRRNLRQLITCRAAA

[11] = target: T6, Apoptotic protease-activating factor 1 (Homo sapiens, UniProt O14727); test: SAR analysis of small molecule Activators of Apaf-1 in a Fluorescent assay.; type: functional; details: read-out: EC50_Mean;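 further: caspase-3 cleavage of fluorogenic Rh110 DEVD substrate downstream of apoptosome activation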
T6 sequence (O14727 whole entry): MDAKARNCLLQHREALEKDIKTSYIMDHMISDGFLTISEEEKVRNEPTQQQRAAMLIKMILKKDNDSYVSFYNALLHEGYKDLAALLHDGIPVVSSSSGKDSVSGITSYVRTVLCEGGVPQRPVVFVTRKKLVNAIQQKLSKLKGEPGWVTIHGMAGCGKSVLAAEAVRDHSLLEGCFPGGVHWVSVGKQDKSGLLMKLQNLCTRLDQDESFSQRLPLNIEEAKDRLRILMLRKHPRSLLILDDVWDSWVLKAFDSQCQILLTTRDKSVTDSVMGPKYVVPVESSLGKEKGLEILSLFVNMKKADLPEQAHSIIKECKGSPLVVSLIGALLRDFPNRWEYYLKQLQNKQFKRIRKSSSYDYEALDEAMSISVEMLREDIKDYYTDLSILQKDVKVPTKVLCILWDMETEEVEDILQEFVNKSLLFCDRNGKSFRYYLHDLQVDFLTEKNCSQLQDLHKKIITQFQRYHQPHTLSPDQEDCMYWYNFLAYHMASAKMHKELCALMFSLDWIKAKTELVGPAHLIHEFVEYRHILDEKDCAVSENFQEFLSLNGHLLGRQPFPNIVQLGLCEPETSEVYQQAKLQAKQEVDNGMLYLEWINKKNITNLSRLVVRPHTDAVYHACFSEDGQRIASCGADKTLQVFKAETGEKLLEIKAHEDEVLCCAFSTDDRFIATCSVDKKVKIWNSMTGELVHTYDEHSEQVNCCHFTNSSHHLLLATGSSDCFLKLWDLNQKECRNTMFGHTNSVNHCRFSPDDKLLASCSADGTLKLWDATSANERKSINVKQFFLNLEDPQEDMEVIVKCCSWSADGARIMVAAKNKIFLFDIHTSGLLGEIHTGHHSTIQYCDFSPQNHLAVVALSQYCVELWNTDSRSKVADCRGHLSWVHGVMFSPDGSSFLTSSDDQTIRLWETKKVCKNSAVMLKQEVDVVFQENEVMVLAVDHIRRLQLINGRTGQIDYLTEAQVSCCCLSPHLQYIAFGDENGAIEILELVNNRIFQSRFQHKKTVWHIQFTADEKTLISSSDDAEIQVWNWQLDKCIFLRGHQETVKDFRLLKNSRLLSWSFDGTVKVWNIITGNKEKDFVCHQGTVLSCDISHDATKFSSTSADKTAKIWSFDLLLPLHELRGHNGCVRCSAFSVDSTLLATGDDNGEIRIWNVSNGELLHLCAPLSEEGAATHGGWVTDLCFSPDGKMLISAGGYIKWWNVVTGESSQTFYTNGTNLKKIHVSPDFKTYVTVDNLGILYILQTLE

[12] = target: Benomyl/methotrexate resistance protein (Candida albicans, UniProt P28873); test: Candida albicans Mdr1 pump inhibition curves – singleplex, Cherry Pick1 hits, dose response (AID 588608); type: functional
Sequence of Benomyl/methotrexate resistance protein (P28873 whole entry): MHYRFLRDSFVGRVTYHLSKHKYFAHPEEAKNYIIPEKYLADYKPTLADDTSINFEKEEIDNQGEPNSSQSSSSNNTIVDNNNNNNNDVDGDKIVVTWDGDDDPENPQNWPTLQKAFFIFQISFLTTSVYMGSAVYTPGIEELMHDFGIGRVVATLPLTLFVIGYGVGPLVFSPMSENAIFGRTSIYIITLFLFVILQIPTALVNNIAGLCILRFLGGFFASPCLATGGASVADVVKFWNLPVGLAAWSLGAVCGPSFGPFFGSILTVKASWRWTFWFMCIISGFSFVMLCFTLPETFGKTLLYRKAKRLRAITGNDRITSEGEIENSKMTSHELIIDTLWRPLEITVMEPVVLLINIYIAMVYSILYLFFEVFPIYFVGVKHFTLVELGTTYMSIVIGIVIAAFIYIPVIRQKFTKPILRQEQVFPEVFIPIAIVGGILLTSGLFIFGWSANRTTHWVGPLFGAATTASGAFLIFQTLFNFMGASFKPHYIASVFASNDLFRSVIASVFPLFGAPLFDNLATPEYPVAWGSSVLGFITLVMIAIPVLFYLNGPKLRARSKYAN

- IC50 [1]: 7.43 µM (active)
- IC50 [2]: 23.5 µM (inactive)
- IC50 [3]: 11.6 µM (active)
Compound: O=C(N/N=C\C=C\c1ccc(Br)cc1)c1ccc2c(c1)OCO2

- IC50 [4]: 12.4 µM (inactive)
- IC50 [5]: > 79 µM (inactive)
Compound: c1ccc2c(-c3ccc4nncn4c3)cncc2c1

- IC50 [6]: 1 µM (active)
- EC50 [7]: > 53 µM (inactive)
- IC50 [8]: 7.23 µM (active)
Compound: CCN(Cc1ccccc1)C(c1cccc(C#N)c1)c1nnnn1C(C)(C)C (centres undefined)

- IC50 [9]: 4.03 µM (active)
- IC50 [10]: 3.77 µM (active)
Compound: CCOC(=O)C(C(=O)OCC)c1c(Cl)cnn(Cc2cccc3ccccc23)c1=O

- EC50 [11]: > 100 µM (inactive)
Compound: CC1(C)CC2CC(C)(CN2C(=O)C2CC(c3ccc(F)cc3)=NO2)C1 (centres undefined)

- IC50 [9]: 9.16 µM (active)
- IC50 [10]: 8.01 µM (active)
Compound: COc1ccc(Oc2c(Cl)cnn(C(C)c3ccccc3C)c2=O)cc1 (centres undefined)

Compound: COc1ccccc1-c1sc2ccccc2c1-c1ccc(OCCN2CCCCC2)cc1
- EC50 [12]: 18.9 µM (active)
